Where two headings read alike, the source gives them in different places.
Legend:
human PR-B = biological target: T1, human PR-B (Homo sapiens, UniProt P06401); test: Co-transfection assay, PR agonist and antagonist activity, CV-1 cells; format: cell-based; conditions: for EC50: read-out: PR Agonist CV-1 Cells Potency; for IC50: read-out: PR Antagonist CV-1 Cells Potency;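 as to all read-outs here: luciferase reporter driven by a hormone response element, co-transfected with human PR-B into CV-1 monkey kidney cells, agonists raise and antagonists lower the reporter signal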
T1 construct: expressed in transfected cells; host or cells: CV-1 cells (African green monkey kidney fibroblasts), transient transfection
T1 sequence (P06401 1-933): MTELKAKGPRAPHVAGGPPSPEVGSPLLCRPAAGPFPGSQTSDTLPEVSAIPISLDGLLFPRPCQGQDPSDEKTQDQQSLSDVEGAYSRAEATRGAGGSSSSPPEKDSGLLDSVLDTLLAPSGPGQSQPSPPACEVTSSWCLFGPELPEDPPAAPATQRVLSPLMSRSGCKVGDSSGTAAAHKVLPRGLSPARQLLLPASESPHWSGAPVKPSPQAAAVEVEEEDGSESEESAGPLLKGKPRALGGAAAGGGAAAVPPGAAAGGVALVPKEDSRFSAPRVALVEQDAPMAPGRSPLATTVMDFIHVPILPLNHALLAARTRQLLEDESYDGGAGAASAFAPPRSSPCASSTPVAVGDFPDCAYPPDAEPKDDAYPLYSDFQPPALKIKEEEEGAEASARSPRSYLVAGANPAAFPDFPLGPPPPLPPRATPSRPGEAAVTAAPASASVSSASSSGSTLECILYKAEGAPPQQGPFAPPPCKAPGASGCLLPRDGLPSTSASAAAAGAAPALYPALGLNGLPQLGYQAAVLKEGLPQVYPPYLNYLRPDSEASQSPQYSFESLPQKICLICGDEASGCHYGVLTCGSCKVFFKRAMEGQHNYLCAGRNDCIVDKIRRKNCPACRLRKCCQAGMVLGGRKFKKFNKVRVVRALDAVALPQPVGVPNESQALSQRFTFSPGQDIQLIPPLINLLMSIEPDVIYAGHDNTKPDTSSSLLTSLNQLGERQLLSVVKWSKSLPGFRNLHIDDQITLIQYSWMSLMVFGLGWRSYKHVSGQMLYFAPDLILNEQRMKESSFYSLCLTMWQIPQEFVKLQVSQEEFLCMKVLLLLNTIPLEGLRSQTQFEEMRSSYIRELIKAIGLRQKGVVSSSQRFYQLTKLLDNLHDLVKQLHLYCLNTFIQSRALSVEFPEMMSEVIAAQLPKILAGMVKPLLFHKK

[1] = biological target: T2, human progesterone receptor A form (PR-A) (Homo sapiens, UniProt P06401); test: PR binding assay, baculovirus extract, [3H] progesterone; conditions: read-out: PR Binding Ki
T2 sequence (P06401 1-769 isoform P06401-2): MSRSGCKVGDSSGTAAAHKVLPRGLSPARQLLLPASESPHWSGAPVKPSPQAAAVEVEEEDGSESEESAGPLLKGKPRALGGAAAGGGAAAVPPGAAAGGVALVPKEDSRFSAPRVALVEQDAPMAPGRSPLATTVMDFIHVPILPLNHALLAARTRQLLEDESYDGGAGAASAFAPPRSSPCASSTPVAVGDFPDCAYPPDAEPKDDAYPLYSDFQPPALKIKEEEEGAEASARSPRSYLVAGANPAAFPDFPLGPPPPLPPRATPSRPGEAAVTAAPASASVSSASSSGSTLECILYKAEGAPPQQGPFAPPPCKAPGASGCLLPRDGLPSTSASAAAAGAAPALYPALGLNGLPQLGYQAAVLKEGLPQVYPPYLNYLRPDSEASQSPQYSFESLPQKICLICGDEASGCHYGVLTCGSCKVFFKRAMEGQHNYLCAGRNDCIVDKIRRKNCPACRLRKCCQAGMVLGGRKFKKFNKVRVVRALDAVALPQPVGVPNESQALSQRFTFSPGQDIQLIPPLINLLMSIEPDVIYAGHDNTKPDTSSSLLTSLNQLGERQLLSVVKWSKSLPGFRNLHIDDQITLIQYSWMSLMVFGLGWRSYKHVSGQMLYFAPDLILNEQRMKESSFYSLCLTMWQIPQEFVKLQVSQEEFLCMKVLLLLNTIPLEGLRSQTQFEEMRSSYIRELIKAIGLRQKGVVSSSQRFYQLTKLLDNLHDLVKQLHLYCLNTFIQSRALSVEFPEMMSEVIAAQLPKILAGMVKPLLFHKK

[2] = biological target: T3, human androgen receptor (AR) (Homo sapiens, UniProt P10275); test: Co-transfection assay, AR agonist and antagonist activity, CV-1 cells (pRShAR); format: cell-based; conditions: for AR Agonist CV-1 Cells Efficacy (%): agonist mode, relative to DHT; for AR Antagonist CV-1 Cells Efficacy (%): % maximal inhibition
T3 construct: expressed in transfected cells; host or cells: CV-1 cells, transient transfection
T3 sequence (P10275 1-920): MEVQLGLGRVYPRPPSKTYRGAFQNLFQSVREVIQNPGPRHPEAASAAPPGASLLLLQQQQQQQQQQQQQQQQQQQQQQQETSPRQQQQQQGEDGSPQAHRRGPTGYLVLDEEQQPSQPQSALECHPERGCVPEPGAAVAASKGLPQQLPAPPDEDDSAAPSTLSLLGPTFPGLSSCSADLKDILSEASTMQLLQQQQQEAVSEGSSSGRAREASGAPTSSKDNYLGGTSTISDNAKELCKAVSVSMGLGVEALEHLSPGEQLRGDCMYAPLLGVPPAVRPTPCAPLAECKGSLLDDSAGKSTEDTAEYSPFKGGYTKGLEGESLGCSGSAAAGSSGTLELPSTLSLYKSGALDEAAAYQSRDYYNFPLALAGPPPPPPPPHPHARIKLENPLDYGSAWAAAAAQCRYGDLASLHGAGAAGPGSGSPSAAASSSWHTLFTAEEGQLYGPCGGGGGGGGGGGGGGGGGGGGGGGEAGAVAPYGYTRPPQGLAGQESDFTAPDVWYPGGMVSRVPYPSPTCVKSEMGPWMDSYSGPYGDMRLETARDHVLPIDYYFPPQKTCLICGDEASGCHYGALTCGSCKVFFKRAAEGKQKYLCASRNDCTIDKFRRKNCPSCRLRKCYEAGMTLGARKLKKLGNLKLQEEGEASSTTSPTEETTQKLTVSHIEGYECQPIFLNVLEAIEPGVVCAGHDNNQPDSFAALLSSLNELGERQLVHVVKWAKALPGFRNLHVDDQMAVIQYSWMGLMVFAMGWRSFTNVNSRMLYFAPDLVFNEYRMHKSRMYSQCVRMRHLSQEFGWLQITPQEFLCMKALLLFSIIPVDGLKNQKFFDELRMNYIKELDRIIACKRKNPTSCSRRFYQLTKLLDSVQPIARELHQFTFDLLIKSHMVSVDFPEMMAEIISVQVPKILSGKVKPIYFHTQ

[3] = agonist mode, percent maximal response relative to reference agonist progesterone
[4] = antagonist mode, progesterone at its EC50, % maximal inhibition

Compound | PR Agonist CV-1 Cells Efficacy (%) (human PR-B) | PR Antagonist CV-1 Cells Efficacy (%) (human PR-B) | EC50 (human PR-B; agonist mode) [nM] | IC50 (human PR-B) [nM] | Ki [1] [nM] | AR Agonist CV-1 Cells Efficacy (%) ([2]; Table 2) | AR Antagonist CV-1 Cells Efficacy (%) ([2]; Table 2, antagonist mode) | further results
CC1(C)Nc2ccc3c(c2C(=O)C1(C)C)C(c1ccc(Cl)cc1)Oc1ccccc1-3 (racemic) [Compound 379, (R/S)-5-(4-Chlorophenyl)-1,2,3,4-tetrahydro-2,2,3,3-tetramethyl-5H-chromeno[3,4-f]-4-quinolinone] | na (na = not active (i.e. efficacy or <20 and potency of >10,000)) | 87% | > 10000 | 350 | 25 | – | – | –
CC1C(=O)C(C)(C)Nc2ccc3c(c21)/C(=C/c1cccc(F)c1)Oc1ccccc1-3 (racemic) [Compound 389, (Z)-(R/S)-5-(3-Fluorobenzylidene)-1,2,3,4-tetrahydro-2,2,4-trimethyl-5H-chromeno[3,4-f]-3-quinolinone] | 133% | na (na = not active (i.e. efficacy or <20 and potency of >10,000)) | 17 | > 10000 | 4 | – | – | –
CCCCC1Oc2ccccc2-c2ccc3c(c21)C(C)C(O)(CCCC)C(C)(C)N3 (racemic) [Compound 385, (R/S)-3,5-Dibutyl-1,2,3,4-tetrahydro-3-hydroxy-2,2,4-trimethyl-5H-chromeno[3,4-f]quinoline] | 27% | 45% | 82 | 2300 | 31 | – | – | –
CC1C(=O)C(C)(C)Nc2ccc3c(c21)C(c1ccc(Cl)cc1)Oc1ccccc1-3 (single isomer, unassigned; (+)) [Compound 381, (+)-(R*-4l,5l)-5-(4-Chlorophenyl)-1,2,3,4-tetrahydro-2,2,4-trimethyl-5H-chromeno[3,4-f]-3-quinolinone] | – | na (na = not active (i.e. efficacy or <20 and potency of >10,000)) | – | – | – | – | – | –
CC1=CC(C)(C)Nc2ccc(-c3cccc(Cl)c3Cl)cc21 [Compound 109, 6-(2,3-Dichlorophenyl)-1,2-dihydro-2,2,4-trimethylquinoline] | na (na = not active (i.e. efficacy or <20 and potency of >10,000)) | 87% | > 10000 | 138 | 23 | – | – | –
C[C@H]1C(=O)C(C)(C)Nc2ccc3c(c21)O[C@H](c1ccccc1)c1ccccc1-3 (relative stereo) [Compound 391, (R/S-4l,6l)-1,2,3,4-Tetrahydro-2,2,4-trimethyl-6-phenyl-5H-isochromeno[3,4-f]-3-quinolinone] | – | – | – | – | – | – | – | PR Agonist CV-1 Cells Efficacy (%) (human PR-B; [3]): na (na = not active (i.e. efficacy or <20 and potency of >10,000)); PR Antagonist CV-1 Cells Efficacy (%) (human PR-B; [4]): 65%
8-(4-Chlorobenzoyl)-5-trifluoromethyl-7-pyridono[5,6-e]indoline [Compound 420] | – | – | – | – | – | 40% | 80 | –
CC1C(=O)C(C)(C)Nc2ccc(-c3cc(F)cc(C#N)c3)cc21 (stereo not drawn) [Compound 286, 6-(3-Cyano-5-Fluorophenyl)-1,2-dihydro-2,2,4-trimethyl-3-quinolone] | na (na = not active (i.e. efficacy or <20 and potency of >10,000)) | 84% | > 10000 | 155 | 61 | – | – | –
CC1(C)C=Cc2c(ccc3c2c(=O)oc2ccc(Cl)cc23)N1 [Compound 313, 9-Chloro-1,2-dihydro-2,2-dimethyl-5-coumarino[3,4-f]quinoline] | – | – | 300 | 140 | 87 | – | – | –
CC1=CC(C)(C)Nc2ccc(-c3cc(F)cc(C#N)c3)cc21 [Compound 271, 6-(3-Cyano-5-fluorophenyl)-1,2-dihydro-2,2,4-trimethylquinoline] | na (na = not active (i.e. efficacy or <20 and potency of >10,000)) | 78% | – | – | – | – | – | –
CC1=CC(C)(C)Nc2ccc3c(c21)C(C)Oc1ccc(Cl)cc1-3 (racemic) [Compound 332, (R/S)-9-Chloro-1,2-dihydro-2,2,4,5-tetramethyl-5H-chromeno[3,4-f]quinoline] | 138% | na (na = not active (i.e. efficacy or <20 and potency of >10,000)) | – | – | – | – | – | –
CC1=CC(C)(C)Nc2cc3[nH]c(=O)cc(C(F)(F)F)c3cc21 [Compound 247, 1,2-Dihydro-2,2,4-trimethyl-6-trifluoromethyl-8-pyridono[5,6-g]quinoline] | – | – | – | – | – | 23% | 69 | –
8-Bromo-12-dihydro-2,2,4-trimethylindeno[1,2-]quinoline [Compound 117] | – | – | – | – | – | – | – | PR Agonist CV-1 Cells Efficacy (%) (human PR-B; [3]): na (na = not active (i.e. efficacy or <20 and potency of >10,000)); PR Antagonist CV-1 Cells Efficacy (%) (human PR-B; [4]): 68%
(R/S)-4-Ethyl-1,2,3,4-tetrahydro-1-methyl-8-pyranono[5,6-g]quinoline [Compound 416] | – | – | – | – | – | 88% | 24 | AR Agonist CV-1 Cells Efficacy (%) [2]: 88%; AR Antagonist CV-1 Cells Efficacy (%) ([2]; antagonist mode, DHT at its EC50): 24%
O=c1cc(C(F)(F)F)c2cc3c(cc2[nH]1)NCC3 [Compound 419, 5-Trifluoromethyl-7-pyridono[5,6-e]indoline] | – | – | – | – | – | 29% | 74 | –
CC1(C)CNc2cc3[nH]c(=O)cc(C(F)(F)F)c3cc2C1 [Compound 437, 1,2,3,4-Tetrahydro-3,3-dimethyl-6-trifluoromethyl-8-pyridono[5,6-g]quinoline] | – | – | – | – | – | na (na = not active (i.e. efficacy of <20 and potency of >10,000)) | 72 | AR Agonist CV-1 Cells Efficacy (%) [2]: na (na = not active (i.e. efficacy of <20 and potency of >10,000)); activity as AR antagonists compared with 2-OH-flutamide ([2]; antagonist mode): equivual or better activity
